How the values were obtained:
IDH1 R132H = IDH1 R132H (Homo sapiens, UniProt O75874, R132H); test: Assay for IDH1 R132H inhibitors (NADPH/aKG, resazurin detection); format: biochemical; details: enzyme assay of Example 12; read-out: IDH1R132H IC50
Summary of the method: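 Read-out is resorufin fluorescence (Ex544/Em590) 5 min after adding a 30 μM resazurin detection mix. Before that, mutant enzyme (0.2 μg/ml in its mix) ran 50 min at room temperature with compound, 8 uM NADPH and 2 mM aKG (mix levels) in Tris pH 7.5 with NaCl, MgCl2, BSA.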

HT1080 cells = test: Cellular assay for IDH1m inhibitors: inhibition of 2-HG production (LC-MS, 48 hours) in HT1080 cells; format: cell-based; details: Homo sapiens, HT-1080; inhibition of 2-HG production, HT1080 cells; read-out: HT1080 IC50
Summary of the method: (§1)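 5000 cells/well, DMEM + 10% FBS, overnight 37 °C/5% CO2; compound added (0.2% DMSO final), 48 h; medium sampled for LC-MS 2-HG; IC50 vs DMSO control.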

U87MG cells = test: Cellular assay for IDH1m inhibitors: inhibition of 2-HG production (LC-MS, 48 hours) in U87MG cells; format: cell-based; details: Homo sapiens, U-87 MG, inhibition of 2-HG production, U87R132H cells; read-out: U87R132H IC50
Summary of the method: as §1

Chain of IDH1 R132H (O75874 whole entry R132H): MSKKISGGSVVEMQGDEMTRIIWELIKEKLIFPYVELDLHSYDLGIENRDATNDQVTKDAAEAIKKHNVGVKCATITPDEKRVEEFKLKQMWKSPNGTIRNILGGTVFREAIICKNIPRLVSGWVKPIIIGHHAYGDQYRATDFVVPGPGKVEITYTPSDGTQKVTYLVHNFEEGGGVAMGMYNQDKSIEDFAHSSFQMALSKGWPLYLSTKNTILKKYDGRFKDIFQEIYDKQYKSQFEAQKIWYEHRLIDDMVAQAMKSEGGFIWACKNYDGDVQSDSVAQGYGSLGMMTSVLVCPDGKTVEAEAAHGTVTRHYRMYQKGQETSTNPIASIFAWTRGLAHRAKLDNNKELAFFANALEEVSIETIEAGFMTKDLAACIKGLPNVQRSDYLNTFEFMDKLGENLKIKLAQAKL

COCCC(=O)N1CCN(c2nc(C3CC3)c(-c3cccc(N4CC=CC4=O)c3)cc2C#N)C[C@H]1C [Compound 459, (R)-6-cyclopropyl-2-(4-(3-methoxypropanoyl)-3-methylpiperazin-1-yl)-5-(3-(2-oxo-2,5-dihydro-1H-pyrrol-1-yl)phenyl)nicotinonitrile]
IC50 (IDH1 R132H): < 500 nM | IC50 (HT1080 cells): < 500 nM | IC50 (U87MG cells): < 500 nM

COCCC(=O)N1CCN(c2nc(C3CC3)c(-c3cccc(NC(=O)[C@@H](C)Cl)c3)cc2C#N)C[C@H]1C [Compound 462, (R)-2-chloro-N-(3-(5-cyano-2-cyclopropyl-6-((R)-4-(3-methoxypropanoyl)-3-methylpiperazin-1-yl)pyridin-3-yl)phenyl)propanamide]
IC50 (IDH1 R132H): 500 to 1000 nM | IC50 (HT1080 cells): 1000 to 10000 nM | IC50 (U87MG cells): 1000 to 10000 nM

C=CS(=O)(=O)N(c1cccc(-c2c(C3CC3)nc(N3CCN(C(=O)C4CC4)[C@H](C4CC4)C3)c(C#N)c2C)c1)S(=O)(=O)C=C [Compound 463, (R)—N-(3-(5-cyano-6-(4-(cyclopropanecarbonyl)-3-cyclopropylpiperazin-1-yl)-2-cyclopropyl-4-methylpyridin-3-yl)phenyl)-N-(vinylsulfonyl)ethenesulfonamide]
IC50 (IDH1 R132H): < 500 nM | IC50 (HT1080 cells): 1000 to 10000 nM | IC50 (U87MG cells): 1000 to 10000 nM

N#Cc1cc(-c2ccc3ncoc3c2)c(C2CC2)nc1N1CCN(C(=O)C2CC2)[C@H](C2CC2)C1 [Compound 466, (R)-5-(benzo[d]oxazol-6-yl)-2-(4-(cyclopropanecarbonyl)-3-cyclopropylpiperazin-1-yl)-6-cyclopropylnicotinonitrile]
IC50 (IDH1 R132H): < 500 nM | IC50 (HT1080 cells): 1000 to 10000 nM | IC50 (U87MG cells): 500 to 1000 nM

C=CS(=O)(=O)Nc1cccc(-c2c(C3CC3)nc(N3CCN(C(=O)C4CC4)[C@H](C4CC4)C3)c(C#N)c2C)c1 [Compound 470, (R)—N-(3-(5-cyano-6-(4-(cyclopropanecarbonyl)-3-cyclopropylpiperazin-1-yl)-2-cyclopropyl-4-methylpyridin-3-yl)phenyl)ethenesulfonamide]
IC50 (IDH1 R132H): < 500 nM | IC50 (HT1080 cells): 1000 to 10000 nM | IC50 (U87MG cells): 1000 to 10000 nM

COCCC(=O)N1CCN(c2nc(C3CC3)c(-c3ccc4oc(=O)[nH]c4c3)cc2C#N)C[C@H]1C [Compound 473, (R)-6-cyclopropyl-2-[4-(3-methoxy-propionyl)-3-methyl-piperazin-1-yl]-5-(2-oxo-2,3-dihydro-benzooxazol-5-yl)-nicotinonitrile]
IC50 (IDH1 R132H): < 500 nM | IC50 (HT1080 cells): 1000 to 10000 nM | IC50 (U87MG cells): 500 to 1000 nM

C=Cc1ccc2c(-c3cc(C#N)c(N4CCN(C(=O)C5CC5)[C@H](C5CC5)C4)nc3C3CC3)cccc2n1 [Compound 475, (R)-2-(4-(cyclopropanecarbonyl)-3-cyclopropylpiperazin-1-yl)-6-cyclopropyl-5-(2-vinylquinolin-5-yl)nicotinonitrile]
IC50 (IDH1 R132H): < 500 nM | IC50 (HT1080 cells): 500 to 1000 nM | IC50 (U87MG cells): < 500 nM

N#Cc1cc(-c2cccc3nc(O)ccc23)c(C2CC2)nc1N1CCN(C(=O)C2CC2)[C@H](C2CC2)C1 [Compound 476, (R)-2-(4-(cyclopropanecarbonyl)-3-cyclopropylpiperazin-1-yl)-6-cyclopropyl-5-(2-hydroxyquinolin-5-yl)nicotinonitrile]
IC50 (IDH1 R132H): < 500 nM | IC50 (HT1080 cells): 500 to 1000 nM | IC50 (U87MG cells): < 500 nM

COC[C@@H]1C[C@@H]1C(=O)N1CCN(c2nc(C3CC3)c(-c3cccc4cnccc34)cc2C#N)C[C@H]1C1CC1 [Compound 480, 6-cyclopropyl-2-((R)-3-cyclopropyl-4-((1S,2R)-2-(methoxymethyl)cyclopropanecarbonyl)piperazin-1-yl)-5-(isoquinolin-5-yl)nicotinonitrile]
IC50 (IDH1 R132H): < 500 nM | IC50 (HT1080 cells): < 500 nM | IC50 (U87MG cells): < 500 nM

CCOC1CC1C(=O)N1CCN(c2nc(C3CC3)c(-c3cccc4cnccc34)cc2C#N)C[C@H]1C1CC1 (stereo partly drawn) [Compound 481]
IC50 (IDH1 R132H): < 500 nM | IC50 (HT1080 cells): < 500 nM | IC50 (U87MG cells): < 500 nM

N#Cc1cc(-c2cccc3ncoc23)c(C2CC2)nc1N1CCN(C(=O)C2CC2)[C@H](C2CC2)C1 [Compound 483, (R)-5-(benzo[d]oxazol-7-yl)-2-(4-(cyclopropanecarbonyl)-3-cyclopropylpiperazin-1-yl)-6-cyclopropylnicotinonitrile]
IC50 (IDH1 R132H): < 500 nM | IC50 (HT1080 cells): 1000 to 10000 nM | IC50 (U87MG cells): 500 to 1000 nM

C=Cc1cc(-c2cc(C#N)c(N3CCN(C(=O)C4CC4)[C@H](C4CC4)C3)nc2C2CC2)ccn1 [Compound 485, (R)-6-(4-(cyclopropanecarbonyl)-3-cyclopropylpiperazin-1-yl)-2-cyclopropyl-2′-vinyl-3,4′-bipyridine-5-carbonitrile]
IC50 (IDH1 R132H): < 500 nM | IC50 (HT1080 cells): < 500 nM | IC50 (U87MG cells): < 500 nM

N#Cc1cc(-c2cccc3cnccc23)c(C2CC2)nc1N1CCN(C(=O)c2ccoc2)[C@H](C2CC2)C1 [Compound 488, (R)-6-cyclopropyl-2-(3-cyclopropyl-4-(furan-3-carbonyl)piperazin-1-yl)-5-(isoquinolin-5-yl)nicotinonitrile]
IC50 (IDH1 R132H): < 500 nM | IC50 (HT1080 cells): < 500 nM | IC50 (U87MG cells): 500 to 1000 nM

C=Cc1nccc(-c2cc(C#N)c(N3CCN(C(=O)C4CC4)[C@H](C4CC4)C3)nc2C2CC2)n1 [Compound 496, (R)-2-(4-(cyclopropanecarbonyl)-3-cyclopropylpiperazin-1-yl)-6-cyclopropyl-5-(2-vinylpyrimidin-4-yl)nicotinonitrile]
IC50 (IDH1 R132H): 500 to 1000 nM | IC50 (HT1080 cells): 500 to 1000 nM | IC50 (U87MG cells): < 500 nM

C=Cc1cc(-c2cc(C#N)c(N3CCN(C(=O)CC(F)(F)F)[C@H](C4CC4)C3)nc2C2CC2)ccn1 [Compound 498, (R)-2-cyclopropyl-6-(3-cyclopropyl-4-(3,3,3-trifluoropropanoyl)piperazin-1-yl)-2′-vinyl-3,4′-bipyridine-5-carbonitrile]
IC50 (IDH1 R132H): < 500 nM | IC50 (HT1080 cells): < 500 nM | IC50 (U87MG cells): < 500 nM

C=Cc1cccc(-c2cc(C#N)c(N3CCN(C(=O)C4CC4)[C@H](C4CC4)C3)nc2C2CC2)n1 [Compound 499, (R)-6′-(4-(cyclopropanecarbonyl)-3-cyclopropylpiperazin-1-yl)-2′-cyclopropyl-6-vinyl-2,3′-bipyridine-5′-carbonitrile]
IC50 (IDH1 R132H): 500 to 1000 nM | IC50 (HT1080 cells): 1000 to 10000 nM | IC50 (U87MG cells): 1000 to 10000 nM

C=Cc1cc(-c2cc(C#N)c(N3CCN(C(=O)CCO)[C@H](C)C3)nc2C2CC2)ccn1 [Compound 500]
IC50 (IDH1 R132H): < 500 nM | IC50 (HT1080 cells): < 500 nM | IC50 (U87MG cells): < 500 nM

N#Cc1cc(-c2ccnc(Br)c2)c(C2CC2)nc1N1CCN(C(=O)C2CC2)[C@H](C2CC2)C1 [Compound 508, (R)-2′-bromo-6-(4-(cyclopropanecarbonyl)-3-cyclopropylpiperazin-1-yl)-2-cyclopropyl-3,4′-bipyridine-5-carbonitrile]
IC50 (IDH1 R132H): < 500 nM | IC50 (HT1080 cells): < 500 nM | IC50 (U87MG cells): < 500 nM

CCO[C@@H]1C[C@@H]1C(=O)N1CCN(c2nc(C3CC3)c(-c3cccc4cnccc34)cc2C#N)C[C@H]1C1CC1 [Compound 526, 6-cyclopropyl-2-((R)-3-cyclopropyl-4-((1S,2R)-2-ethoxycyclopropanecarbonyl)piperazin-1-yl)-5-(isoquinolin-5-yl)nicotinonitrile]
IC50 (IDH1 R132H): 500 to 1000 nM | IC50 (HT1080 cells): < 500 nM | IC50 (U87MG cells): < 500 nM

C=Cc1cc(-c2cc(C#N)c(N3CCN(C(=O)CCO)[C@H](C4CC4)C3)nc2C2CC2)ccn1 [Compound 527]
IC50 (IDH1 R132H): < 500 nM | IC50 (HT1080 cells): < 500 nM | IC50 (U87MG cells): < 500 nM

N#Cc1cc(Nc2ccnc3ccccc23)c(C2CC2)nc1N1CCN(C(=O)C2CC2)[C@H](C2CC2)C1 [Compound 528, (R)-2-(4-(cyclopropanecarbonyl)-3-cyclopropylpiperazin-1-yl)-6-cyclopropyl-5-(quinolin-4-ylamino)nicotinonitrile]
IC50 (IDH1 R132H): < 500 nM | IC50 (HT1080 cells): 500 to 1000 nM | IC50 (U87MG cells): < 500 nM

C=Cc1cc(-c2cc(C#N)c(N3CCN(C(=O)CCOC)[C@H](C4CC4)C3)nc2C2CC2)ccn1 [Compound 530, (R)-2-cyclopropyl-6-(3-cyclopropyl-4-(3-methoxypropanoyl)piperazin-1-yl)-2′-vinyl-3,4′-bipyridine-5-carbonitrile]
IC50 (IDH1 R132H): < 500 nM | IC50 (HT1080 cells): < 500 nM | IC50 (U87MG cells): < 500 nM

C=Cc1cc(-c2cc(C#N)c(N3CCN(C(=O)C4CC4)[C@H](C4CC4)C3)nc2C2CC2)ncn1 [Compound 541, (R)-2-(4-(cyclopropanecarbonyl)-3-cyclopropylpiperazin-1-yl)-6-cyclopropyl-5-(6-vinylpyrimidin-4-yl)nicotinonitrile]
IC50 (IDH1 R132H): < 500 nM | IC50 (HT1080 cells): < 500 nM | IC50 (U87MG cells): < 500 nM

C=Cc1cc(-c2cc(C#N)c(N3CCN(C(=O)C4CC4)[C@H](C4CC4)C3)nc2C2CC2)c2ccccc2n1 [Compound 542, (R)-2-(4-(cyclopropanecarbonyl)-3-cyclopropylpiperazin-1-yl)-6-cyclopropyl-5-(2-vinylquinolin-4-yl)nicotinonitrile]
IC50 (IDH1 R132H): < 500 nM | IC50 (HT1080 cells): < 500 nM | IC50 (U87MG cells): < 500 nM

C=Cc1cc(-c2cc(C#N)c(N3CCN(C(=O)c4ccoc4)[C@H](C4CC4)C3)nc2C2CC2)ccn1 [Compound 546, (R)-2-cyclopropyl-6-(3-cyclopropyl-4-(furan-3-carbonyl)piperazin-1-yl)-2′-vinyl-3,4′-bipyridine-5-carbonitrile]
IC50 (IDH1 R132H): < 500 nM | IC50 (HT1080 cells): < 500 nM | IC50 (U87MG cells): < 500 nM

N#Cc1cc(-c2cccc3c(O)nccc23)c(C2CC2)nc1N1CCN(C(=O)CC(F)(F)F)[C@H](C2CC2)C1 [Compound 547, (R)-6-cyclopropyl-2-(3-cyclopropyl-4-(3,3,3-trifluoropropanoyl)piperazin-1-yl)-5-(1-hydroxyisoquinolin-5-yl)nicotinonitrile]
IC50 (IDH1 R132H): < 500 nM | IC50 (HT1080 cells): < 500 nM | IC50 (U87MG cells): < 500 nM

Source: patent US9856279B2 (AGIOS PHARMACEUTICALS, INC, priority 2011, dated 2018)
